Test results taken from patent publication US6737383B1, “Herbicidal oxadiazolidines” (priority 1999, dated 2004).

Columns and labels:
crabgrass = test: Test B pre/postemergence crabgrass; assay type: in vivo, Digitaria sanguinalis
Summary of the method: (§1)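 Test chemicals in a non-phytotoxic solvent mixture with surfactant were sprayed preemergence onto planted seeds and postemergence onto plants 2 to 18 cm tall (1- to 4-leaf stage). After twelve to sixteen days in a greenhouse, injury was visually rated against untreated controls from 0 (no effect) to 10 (complete control).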

bedstraw = test: Test B pre/postemergence bedstraw; assay type: in vivo, Galium aparine
Summary of the method: as §1

sugar beet = test: Test B pre/postemergence sugar beet; assay type: in vivo, Beta vulgaris
Summary of the method: as §1

surinam grass = test: Test B pre/postemergence surinam grass; assay type: in vivo, Brachiaria decumbens
Summary of the method: as §1

blackgrass = test: Test B pre/postemergence blackgrass; assay type: in vivo, Alopecurus myosuroides
Summary of the method: as §1

pigweed = test: Test B pre/postemergence pigweed; assay type: in vivo, Amaranthus retroflexus
Summary of the method: as §1

rape = test: Test B pre/postemergence rape; assay type: in vivo, Brassica napus
Summary of the method: as §1

wild oat = test: Test B pre/postemergence wild oat; assay type: in vivo, Avena fatua
Summary of the method: as §1

soybean = test: Test B pre/postemergence soybean; assay type: in vivo, Glycine max
Summary of the method: as §1

purple nutsedge = test: Test B pre/postemergence purple nutsedge; assay type: in vivo, Cyperus rotundus
Summary of the method: as §1

wheat = test: Test B pre/postemergence wheat; assay type: in vivo, Triticum aestivum
Summary of the method: as §1

corn = test: Test B pre/postemergence corn; assay type: in vivo, Zea mays
Summary of the method: as §1

cocklebur = test: Test B pre/postemergence cocklebur; assay type: in vivo, Xanthium strumarium
Summary of the method: as §1

giant foxtail = test: Test B pre/postemergence giant foxtail; assay type: in vivo, Setaria faberii
Summary of the method: as §1

morningglory = test: Test B pre/postemergence morningglory; assay type: in vivo, Ipomoea hederacea
Summary of the method: as §1

velvetleaf = test: Test B pre/postemergence velvetleaf; assay type: in vivo, Abutilon theophrasti
Summary of the method: as §1

[1] = Postemergence, Rate 62 g/ha, scale 0 to 10, 0 is no effect, 10 is complete control
[2] = Postemergence, Rate 125 g/ha, scale of 0 to 10 where 0 is no effect and 10 is complete control
[3] = Preemergence, Rate 62 g/ha, scale of 0 to 10 where 0 is no effect and 10 is complete control
[4] = Preemergence, Rate 125 g/ha, scale of 0 to 10 where 0 is no effect and 10 is complete control
[5] = Preemergence, Rate 250 g/ha, scale 0 (no effect) to 10 (complete control)
[6] = Rate 250 g/ha, Postemergence, scale 0 to 10, 0 is no effect, 10 is complete control
[7] = Rate 500 g/ha, Postemergence, scale 0 to 10, 0 is no effect, 10 is complete control
[8] = Preemergence, Rate 500 g/ha, scale of 0 to 10 where 0 is no effect and 10 is complete control

With CC(C)N(C(=O)n1oc(=O)n(CCCCCl)c1=O)c1ccc(F)cc1 [Compound 712] the “Plant response rating, Crabgrass” value (crabgrass; [1]) was 1, the “Crabgrass plant response rating” value (crabgrass; [2]) was 4 and the “Crabgrass plant response rating” value (crabgrass; [3]) was 8. For the same compound, the “Plant response rating, Crabgrass” value (crabgrass; [4]) was 9, the “Crabgrass plant response rating” value (crabgrass; [5]) was 10 and the “Crabgrass plant response rating” value (crabgrass; [6]) was 9. The “Crabgrass plant response rating” value (crabgrass; [7]) was 9, the “Bedstraw plant response rating” value (bedstraw; [3]) was 0 and the “Plant response rating, Bedstraw” value (bedstraw; [4]) was 0. The “Bedstraw plant response rating” value (bedstraw; [5]) was 2, the “Plant response rating, Bedstraw” value (bedstraw; [8]) was 5 and the “Bedstraw plant response rating” value (bedstraw; [7]) was 8. For the same compound, the “Plant response rating, Sugarbeets” value (sugar beet; [1]) was 1, the “Sugarbeets plant response rating” value (sugar beet; [2]) was 3 and the “Sugarbeets plant response rating” value (sugar beet; [3]) was 0. For the same compound, the “Plant response rating, Sugarbeets” value (sugar beet; [4]) was 4, the “Sugarbeets plant response rating” value (sugar beet; [5]) was 7 and the “Sugarbeets plant response rating” value (sugar beet; [7]) was 6. The “Plant response rating, B. signalgrass” value (surinam grass; [1]) was 0, the “B. signalgrass plant response rating” value (surinam grass; [2]) was 0 and the “B. signalgrass plant response rating” value (surinam grass; [3]) was 3. The “Plant response rating, B. signalgrass” value (surinam grass; [4]) was 5, the “B. signalgrass plant response rating” value (surinam grass; [5]) was 8 and the “Plant response rating, B. signalgrass” value (surinam grass; [8]) was 8. The “B. signalgrass plant response rating” value (surinam grass; [6]) was 4, the “B. signalgrass plant response rating” value (surinam grass; [7]) was 8 and the “Plant response rating, Blackgrass” value (blackgrass; [1]) was 0. The “Blackgrass plant response rating” value (blackgrass; [2]) was 0, the “Blackgrass plant response rating” value (blackgrass; [3]) was 3 and the “Plant response rating, Blackgrass” value (blackgrass; [4]) was 6. The “Blackgrass plant response rating” value (blackgrass; [5]) was 8, the “Plant response rating, Blackgrass” value (blackgrass; [8]) was 9 and the “Blackgrass plant response rating” value (blackgrass; [6]) was 5. The “Blackgrass plant response rating” value (blackgrass; [7]) was 6, the “Plant response rating, Redroot pigweed” value (pigweed; [1]) was 3 and the “Redroot pigweed plant response rating” value (pigweed; [3]) was 6. The “Plant response rating, Redroot pigweed” value (pigweed; [4]) was 8, the “Redroot pigweed plant response rating” value (pigweed; [5]) was 8 and the “Redroot pigweed plant response rating” value (pigweed; [6]) was 6. The “Redroot pigweed plant response rating” value (pigweed; [7]) was 8, the “Plant response rating, Rape” value (rape; [1]) was 2 and the “Rape plant response rating” value (rape; [2]) was 3. For the same compound, the “Rape plant response rating” value (rape; [3]) was 0, the “Plant response rating, Rape” value (rape; [4]) was 2 and the “Rape plant response rating” value (rape; [5]) was 7. For the same compound, the “Rape plant response rating” value (rape; [6]) was 4, the “Rape plant response rating” value (rape; [7]) was 4 and the “Plant response rating, Wild oats” value (wild oat; [1]) was 0. For the same compound, the “Wild oats plant response rating” value (wild oat; [2]) was 0, the “Wild oats plant response rating” value (wild oat; [3]) was 0 and the “Plant response rating, Wild oats” value (wild oat; [4]) was 3. For the same compound, the “Wild oats plant response rating” value (wild oat; [5]) was 3, the “Wild oats plant response rating” value (wild oat; [6]) was 0 and the “Wild oats plant response rating” value (wild oat; [7]) was 3. For the same compound, the “Plant response rating, Soybean” value (soybean; [1]) was 2, the “Soybean plant response rating” value (soybean; [2]) was 5 and the “Soybean plant response rating” value (soybean; [3]) was 0. For the same compound, the “Plant response rating, Soybean” value (soybean; [4]) was 0, the “Soybean plant response rating” value (soybean; [5]) was 0 and the “Soybean plant response rating” value (soybean; [6]) was 5. The “Soybean plant response rating” value (soybean; [7]) was 5, the “Plant response rating, Nutsedge” value (purple nutsedge; [1]) was 0 and the “Nutsedge plant response rating” value (purple nutsedge; [2]) was 0. For the same compound, the “Nutsedge plant response rating” value (purple nutsedge; [3]) was 0, the “Plant response rating, Nutsedge” value (purple nutsedge; [4]) was 0 and the “Nutsedge plant response rating” value (purple nutsedge; [5]) was 0. The “Nutsedge plant response rating” value (purple nutsedge; [6]) was 0, the “Nutsedge plant response rating” value (purple nutsedge; [7]) was 0 and the “Plant response rating, Wheat” value (wheat; [1]) was 0. The “Wheat plant response rating” value (wheat; [2]) was 0, the “Wheat plant response rating” value (wheat; [3]) was 0 and the “Plant response rating, Wheat” value (wheat; [4]) was 0. The “Wheat plant response rating” value (wheat; [5]) was 0, the “Wheat plant response rating” value (wheat; [6]) was 0 and the “Wheat plant response rating” value (wheat; [7]) was 5. For the same compound, the “Plant response rating, Corn” value (corn; [1]) was 0, the “Corn plant response rating” value (corn; [2]) was 0 and the “Corn plant response rating” value (corn; [3]) was 0. The “Plant response rating, Corn” value (corn; [4]) was 0, the “Corn plant response rating” value (corn; [5]) was 0 and the “Corn plant response rating” value (corn; [6]) was 0. The “Corn plant response rating” value (corn; [7]) was 0, the “Plant response rating, Cocklebur” value (cocklebur; [1]) was 0 and the “Cocklebur plant response rating” value (cocklebur; [2]) was 0. The “Cocklebur plant response rating” value (cocklebur; [3]) was 0, the “Plant response rating, Cocklebur” value (cocklebur; [4]) was 0 and the “Cocklebur plant response rating” value (cocklebur; [5]) was 0. For the same compound, the “Plant response rating, Cocklebur” value (cocklebur; [8]) was 0, the “Cocklebur plant response rating” value (cocklebur; [6]) was 3 and the “Cocklebur plant response rating” value (cocklebur; [7]) was 3. The “Plant response rating, Giant foxtail” value (giant foxtail; [1]) was 3, the “Giant foxtail plant response rating” value (giant foxtail; [2]) was 8 and the “Giant foxtail plant response rating” value (giant foxtail; [3]) was 10. For the same compound, the “Plant response rating, Giant foxtail” value (giant foxtail; [4]) was 10, the “Giant foxtail plant response rating” value (giant foxtail; [5]) was 10 and the “Giant foxtail plant response rating” value (giant foxtail; [6]) was 8. For the same compound, the “Giant foxtail plant response rating” value (giant foxtail; [7]) was 9, the “Plant response rating, Morningglory” value (morningglory; [1]) was 3 and the “Morningglory plant response rating” value (morningglory; [2]) was 4. The “Morningglory plant response rating” value (morningglory; [3]) was 0, the “Plant response rating, Morningglory” value (morningglory; [4]) was 0 and the “Morningglory plant response rating” value (morningglory; [5]) was 0. The “Morningglory plant response rating” value (morningglory; [6]) was 10, the “Morningglory plant response rating” value (morningglory; [7]) was 10 and the “Plant response rating, Velvetleaf” value (velvetleaf; [1]) was 0. For the same compound, the “Velvetleaf plant response rating” value (velvetleaf; [2]) was 5, the “Velvetleaf plant response rating” value (velvetleaf; [3]) was 0 and the “Plant response rating, Velvetleaf” value (velvetleaf; [4]) was 3. The “Velvetleaf plant response rating” value (velvetleaf; [5]) was 3, the “Velvetleaf plant response rating” value (velvetleaf; [6]) was 6 and the “Velvetleaf plant response rating” value (velvetleaf; [7]) was 6.
